Source: ChEMBL document CHEMBL1201862, “PubChem BioAssay data set” (2004)
Active and inactive are the calls of the source.

Tests used:
[1] = target: T1, Short transient receptor potential channel 4 (Mus musculus, UniProt Q9QUQ5); assay: block of DAMGO-driven TRPC4 calcium entry – cell-based, HEK293 TRPC4/mu-opioid, Fluo-4 calcium, dose response (AID 434942); format: functional;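 further: potency of inhibitors blocking the TRPC4 calcium response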
T1 sequence (Q9QUQ5 whole entry): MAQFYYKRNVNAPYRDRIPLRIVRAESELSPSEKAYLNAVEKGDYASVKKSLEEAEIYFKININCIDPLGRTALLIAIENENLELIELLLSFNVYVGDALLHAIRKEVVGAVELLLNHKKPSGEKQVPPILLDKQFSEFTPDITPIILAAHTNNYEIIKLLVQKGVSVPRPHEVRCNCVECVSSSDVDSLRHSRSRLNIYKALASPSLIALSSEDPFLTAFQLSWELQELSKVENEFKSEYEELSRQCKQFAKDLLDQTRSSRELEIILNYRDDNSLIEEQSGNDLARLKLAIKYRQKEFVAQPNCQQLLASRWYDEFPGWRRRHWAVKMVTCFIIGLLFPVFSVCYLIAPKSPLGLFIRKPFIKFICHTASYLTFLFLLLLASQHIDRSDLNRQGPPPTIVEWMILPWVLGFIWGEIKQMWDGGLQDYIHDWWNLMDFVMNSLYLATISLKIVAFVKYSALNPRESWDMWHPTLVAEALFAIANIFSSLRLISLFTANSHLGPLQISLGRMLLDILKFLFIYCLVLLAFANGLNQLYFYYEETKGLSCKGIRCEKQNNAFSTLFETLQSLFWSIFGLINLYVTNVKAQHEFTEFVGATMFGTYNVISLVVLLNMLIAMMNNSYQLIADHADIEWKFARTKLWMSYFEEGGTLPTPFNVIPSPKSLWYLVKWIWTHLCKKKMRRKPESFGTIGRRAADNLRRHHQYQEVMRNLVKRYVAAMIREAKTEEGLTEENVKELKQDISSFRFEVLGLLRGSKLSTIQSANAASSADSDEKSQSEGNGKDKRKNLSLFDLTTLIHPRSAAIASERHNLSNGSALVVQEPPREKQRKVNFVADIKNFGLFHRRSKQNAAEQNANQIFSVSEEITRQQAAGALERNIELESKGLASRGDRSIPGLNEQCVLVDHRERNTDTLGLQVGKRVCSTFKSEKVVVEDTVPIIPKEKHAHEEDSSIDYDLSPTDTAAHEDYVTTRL

HEK293 [2] = assay: cells; details: Homo sapiens
HEK293 [3] = assay: cells; details: Homo sapiens; remark: listed apart in the source
[4] = viability of uninfected HEp-2 cells – cell-based, HTS, cytotoxicity control for RSV inhibitor project, dose response (AID 2410); format: functional; details: human respiratory syncytial virus
[5] = target: T2, Voltage-gated N-type calcium channel alpha-1B subunit/Amyloid beta A4 precursor protein-binding family A member 1 (Homo sapiens, UniProt Q00975+Q02410); format: protein assay
[6] = target: Luciferin 4-monooxygenase (Photinus pyralis, UniProt P08659); assay: inhibition of purified Photinus pyralis luciferase – biochemical, luminescence, dose response (AID 1891)
[7] = Luminescence Cell-Based Dose Confirmation HTS to Identify Inhibitors of Platelet Dense Granule Release. [Related pubchem assays: 1663 (Primary HTS), 1678 (Summary of Project)]; format: functional
[8] = target: T2, Voltage-gated N-type calcium channel alpha-1B subunit/Amyloid beta A4 precursor protein-binding family A member 1; format: protein assay; remark: listed apart in the source
[9] = viability of PTEN-deleted HCT116 cells – cell-based, HCT116 PTEN knockout, dose response (AID 1047); format: functional;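 further: HCT116 colon tumor cells with PTEN knocked out; cells exposed to compound for 60 hours before readout; potency for loss of cell viability measured by luminescence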
[10] = viability of HCT116 lacking mutant beta-catenin – cell-based, human colon tumor, dose response (AID 1045); format: functional;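 further: HCT116 colon tumor cells with beta catenin knocked out; cells exposed to compound for 60 hours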
[11] = target: Heat shock protein HSP 90-alpha (Homo sapiens, UniProt P07900); format: functional, organism-based
[12] = reduction of Shn3 3'UTR-driven luciferase in osteoblasts – cell-based, Clone20 osteoblasts, firefly luciferase, cherry-picked, dose response (AID 624132); format: functional;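 further: firefly luciferase luminescence from reporter carrying the Shn3 3'UTR in osteoblasts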
[13] = loss of viability in HepG2 cells – cell-based, CellTiter-Glo, cherry-picked, cytotoxicity control for Shn3 inhibitor project, dose response (AID 624134); format: functional
[14] = non-specific 3'UTR reporter inhibition in Clone20-Shn3RL – cell-based, Renilla luciferase, cherry-picked, counter-screen for Shn3 inhibitor project, dose response (AID 624133); format: functional
[15] = target: Glucose-6-phosphate 1-dehydrogenase (Homo sapiens, UniProt P11413); assay: inhibition of Homo sapiens G6PD, dose series – biochemical, fluorescence, selectivity assay for P. falciparum G6PD inhibitor project, dose response (AID 504792); format: functional
[16] = luciferase reporter signal suppression in cells – H4 neuroglioma cells, luminescence, dose response (AID 1990); format: functional, cell-based
BJ [17] = assay: BJ-TERT fibroblast viability loss – cell-based, RAS-independent, luminescence, dose response (AID 1933); format: functional; details: Homo sapiens
[18] = Luminescence Cell-Based Dose Response HTS to Identify Inhibitors of 5'UTR Stem-Loop Driven Prion Protein mRNA Translation in H4 Neuroglioblastoma Cells. [Related pubchem assays: 1827 (Project Summary), 1813 (Primary HTS)]; format: functional
BJ [19] = assay: cells; format: functional, cell-based; details: Homo sapiens
BJ [20] = assay: BJ-TERT-LT-ST fibroblast viability loss – cell-based, RAS-independent, luminescence, dose response (AID 1935); format: functional; details: Homo sapiens;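 further: BJ fibroblasts immortalized with TERT plus LT and ST oncogenes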
[21] = DRD fibroblast viability loss – cell-based, non-viral oncogenic, luminescence, dose response (AID 1934); format: functional; details: Homo sapiens
Vero [22] = assay: cells; format: functional, cell-based; details: Chlorocebus sabaeus
Vero [23] = assay: cells; format: functional; details: Chlorocebus sabaeus
[24] = Luminescence Cell-Based Dose Confirmation HTS to Identify Activators of 5'UTR Stem-Loop Driven Alpha-Synuclein mRNA Translation in H4 Neuroglioblastoma Cells. [Related pubchem assays: 1829 (Project Summary), 1814 (Primary HTS)]; format: functional
[25] = Luminescence Cell-Based Dose Response HTS to Identify Activators of Luciferase Translation or Activity in H4 […] Cells. [Related pubchem assays: 1829 (Project Summary), 1814 (Primary HTS)]; format: functional
H4 = assay: Luminescence Cell-Based Dose Response HTS to Identify Activators of 5'UTR Stem-Loop Driven Prion Protein mRNA Translation in H4 Neuroglioblastoma Cells. [Related pubchem assays: 1829 (Project Summary), 1814 (Primary HTS)]; format: functional; details: Homo sapiens

T2 sequence (Q00975 whole entry): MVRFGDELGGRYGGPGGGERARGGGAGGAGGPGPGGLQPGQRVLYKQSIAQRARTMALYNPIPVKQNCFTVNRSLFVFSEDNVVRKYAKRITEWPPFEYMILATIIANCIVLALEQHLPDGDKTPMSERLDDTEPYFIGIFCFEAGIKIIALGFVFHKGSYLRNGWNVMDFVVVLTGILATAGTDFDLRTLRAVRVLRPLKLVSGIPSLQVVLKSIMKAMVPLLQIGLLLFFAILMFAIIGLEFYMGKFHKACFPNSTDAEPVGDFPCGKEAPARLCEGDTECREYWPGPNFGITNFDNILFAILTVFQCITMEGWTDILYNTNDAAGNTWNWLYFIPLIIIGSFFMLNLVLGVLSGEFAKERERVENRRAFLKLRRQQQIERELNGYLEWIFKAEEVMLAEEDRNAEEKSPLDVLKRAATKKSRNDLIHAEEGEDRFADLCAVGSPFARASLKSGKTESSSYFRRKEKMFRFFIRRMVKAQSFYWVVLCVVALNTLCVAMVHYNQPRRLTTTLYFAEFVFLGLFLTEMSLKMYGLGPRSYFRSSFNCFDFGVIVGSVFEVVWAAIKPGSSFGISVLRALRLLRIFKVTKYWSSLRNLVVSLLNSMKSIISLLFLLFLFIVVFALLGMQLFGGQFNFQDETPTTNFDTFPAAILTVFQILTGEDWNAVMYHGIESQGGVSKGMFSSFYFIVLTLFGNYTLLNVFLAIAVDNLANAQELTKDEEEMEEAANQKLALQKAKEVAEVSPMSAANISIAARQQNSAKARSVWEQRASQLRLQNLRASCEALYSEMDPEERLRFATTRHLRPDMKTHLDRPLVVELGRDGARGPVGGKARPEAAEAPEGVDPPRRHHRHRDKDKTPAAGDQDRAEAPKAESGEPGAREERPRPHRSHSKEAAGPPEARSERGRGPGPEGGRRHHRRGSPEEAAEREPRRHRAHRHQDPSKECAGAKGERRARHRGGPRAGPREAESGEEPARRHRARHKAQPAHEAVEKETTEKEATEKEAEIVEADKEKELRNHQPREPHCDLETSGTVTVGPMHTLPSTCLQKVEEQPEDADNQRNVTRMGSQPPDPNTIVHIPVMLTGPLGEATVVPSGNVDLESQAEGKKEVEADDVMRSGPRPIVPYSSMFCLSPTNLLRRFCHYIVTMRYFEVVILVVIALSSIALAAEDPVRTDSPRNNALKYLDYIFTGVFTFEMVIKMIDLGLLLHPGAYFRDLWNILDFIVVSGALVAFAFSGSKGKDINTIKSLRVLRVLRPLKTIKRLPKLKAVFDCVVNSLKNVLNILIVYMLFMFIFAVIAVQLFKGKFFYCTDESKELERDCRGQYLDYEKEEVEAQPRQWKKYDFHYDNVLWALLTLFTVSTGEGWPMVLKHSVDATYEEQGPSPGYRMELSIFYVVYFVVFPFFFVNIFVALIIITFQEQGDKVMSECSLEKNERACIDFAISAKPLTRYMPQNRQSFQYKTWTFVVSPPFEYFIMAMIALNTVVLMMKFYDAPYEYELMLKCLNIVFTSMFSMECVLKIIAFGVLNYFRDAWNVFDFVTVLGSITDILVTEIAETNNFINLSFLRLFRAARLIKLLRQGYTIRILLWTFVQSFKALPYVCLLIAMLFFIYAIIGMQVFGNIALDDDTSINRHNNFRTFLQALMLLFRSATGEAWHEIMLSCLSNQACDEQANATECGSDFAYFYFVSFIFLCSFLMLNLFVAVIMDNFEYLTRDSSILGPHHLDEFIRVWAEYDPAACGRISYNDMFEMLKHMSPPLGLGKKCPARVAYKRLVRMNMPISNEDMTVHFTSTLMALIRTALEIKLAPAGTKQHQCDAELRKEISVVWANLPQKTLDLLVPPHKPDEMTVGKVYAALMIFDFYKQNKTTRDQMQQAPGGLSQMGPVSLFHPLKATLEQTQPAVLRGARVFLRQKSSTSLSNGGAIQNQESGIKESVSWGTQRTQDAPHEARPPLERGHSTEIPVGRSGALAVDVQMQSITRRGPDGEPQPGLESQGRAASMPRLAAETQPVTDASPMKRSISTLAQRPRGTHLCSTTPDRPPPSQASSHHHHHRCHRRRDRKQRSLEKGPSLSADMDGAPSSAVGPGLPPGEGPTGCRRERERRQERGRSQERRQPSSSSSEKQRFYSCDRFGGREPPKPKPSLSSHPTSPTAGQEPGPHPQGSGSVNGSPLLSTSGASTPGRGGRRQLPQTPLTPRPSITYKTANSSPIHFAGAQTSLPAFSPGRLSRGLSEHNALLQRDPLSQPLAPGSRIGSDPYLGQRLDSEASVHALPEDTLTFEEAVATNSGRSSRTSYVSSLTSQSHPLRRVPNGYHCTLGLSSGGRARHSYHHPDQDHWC
T2 sequence (Q02410 whole entry): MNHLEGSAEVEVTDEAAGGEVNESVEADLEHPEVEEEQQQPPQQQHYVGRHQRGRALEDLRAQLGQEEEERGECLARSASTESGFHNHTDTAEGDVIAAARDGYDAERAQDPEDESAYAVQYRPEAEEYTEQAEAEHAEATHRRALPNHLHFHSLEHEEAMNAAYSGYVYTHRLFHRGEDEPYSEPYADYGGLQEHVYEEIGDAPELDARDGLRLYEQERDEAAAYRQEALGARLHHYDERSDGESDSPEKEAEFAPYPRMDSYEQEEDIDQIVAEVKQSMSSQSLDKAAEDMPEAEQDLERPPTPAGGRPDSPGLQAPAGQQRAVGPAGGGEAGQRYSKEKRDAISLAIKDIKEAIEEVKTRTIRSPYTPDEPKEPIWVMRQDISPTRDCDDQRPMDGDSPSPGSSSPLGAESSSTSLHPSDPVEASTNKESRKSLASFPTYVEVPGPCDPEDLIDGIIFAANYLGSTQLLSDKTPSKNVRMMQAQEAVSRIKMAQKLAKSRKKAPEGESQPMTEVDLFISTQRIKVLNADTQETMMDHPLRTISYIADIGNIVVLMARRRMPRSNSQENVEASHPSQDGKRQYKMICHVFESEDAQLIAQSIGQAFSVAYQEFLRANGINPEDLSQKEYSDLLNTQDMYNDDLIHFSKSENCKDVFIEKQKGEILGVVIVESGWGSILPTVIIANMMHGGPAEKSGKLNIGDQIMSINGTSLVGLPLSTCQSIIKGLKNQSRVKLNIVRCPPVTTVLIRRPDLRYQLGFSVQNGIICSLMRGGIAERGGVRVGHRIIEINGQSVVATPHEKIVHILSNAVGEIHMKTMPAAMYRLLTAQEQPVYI
Sequence of Luciferin 4-monooxygenase (P08659 whole entry): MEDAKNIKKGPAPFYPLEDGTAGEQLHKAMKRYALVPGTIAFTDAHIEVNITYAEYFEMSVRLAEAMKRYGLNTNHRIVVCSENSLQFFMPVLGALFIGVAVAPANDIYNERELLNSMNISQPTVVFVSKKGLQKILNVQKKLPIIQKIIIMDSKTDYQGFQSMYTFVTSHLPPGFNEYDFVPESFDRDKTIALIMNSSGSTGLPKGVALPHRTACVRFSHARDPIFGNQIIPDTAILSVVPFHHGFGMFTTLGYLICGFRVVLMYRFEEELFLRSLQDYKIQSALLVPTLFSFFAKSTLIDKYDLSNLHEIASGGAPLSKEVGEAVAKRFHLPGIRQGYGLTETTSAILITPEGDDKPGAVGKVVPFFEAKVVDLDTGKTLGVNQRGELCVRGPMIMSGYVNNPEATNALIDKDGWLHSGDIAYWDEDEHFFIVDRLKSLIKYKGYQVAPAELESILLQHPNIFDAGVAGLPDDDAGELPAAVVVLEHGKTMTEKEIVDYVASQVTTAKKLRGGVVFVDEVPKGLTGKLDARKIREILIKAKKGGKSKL
Sequence of Glucose-6-phosphate 1-dehydrogenase (P11413 whole entry): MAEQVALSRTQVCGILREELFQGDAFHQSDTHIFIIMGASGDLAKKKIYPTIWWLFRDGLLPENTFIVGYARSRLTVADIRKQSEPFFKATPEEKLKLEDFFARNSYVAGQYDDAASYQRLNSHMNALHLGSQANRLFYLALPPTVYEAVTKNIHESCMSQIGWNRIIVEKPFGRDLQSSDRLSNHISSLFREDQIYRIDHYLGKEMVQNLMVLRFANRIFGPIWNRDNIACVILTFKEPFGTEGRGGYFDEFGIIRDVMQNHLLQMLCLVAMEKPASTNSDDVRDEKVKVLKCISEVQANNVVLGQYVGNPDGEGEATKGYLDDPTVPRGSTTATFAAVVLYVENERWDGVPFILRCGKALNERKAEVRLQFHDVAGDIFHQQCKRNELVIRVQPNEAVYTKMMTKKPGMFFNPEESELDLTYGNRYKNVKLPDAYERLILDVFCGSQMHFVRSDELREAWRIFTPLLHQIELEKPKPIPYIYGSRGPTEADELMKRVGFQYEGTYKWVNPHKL

## COCCn1c(SCC(=O)Nc2ccccc2OC)nc2c3ccccc3nc-2c1O
[1]
  EC50: 3.76 µM (active)
HEK293 [2]
  EC50: > 59.6 µM (inactive)
HEK293 [3]
  EC50: > 59.6 µM (inactive)

## Cc1ccc(NN2C(=O)C=C(c3ccc(Cl)cc3)C2=O)cc1
[4]
  CC50: 10.8 µM (active)
[5]
  IC50: 11 µM (active)
[6]
  EC50: > 112 µM (not active)
[7]
  EC50: 9.18 µM (active)
[8]
  IC50: > 50 µM (inactive)
[9]
  EC50: 19.9 µM (active)
[10]
  EC50: 24.1 µM (active)
[11]
  AC50: < 0.195 µM (active)
[12]
  AC50: 6.53 µM (active)
[13]
  AC50: 19.8 µM (active)
[14]
  AC50: 12.6 µM (active)
HEK293 [2]
  EC50: > 59.6 µM (inactive)
HEK293 [3]
  EC50: > 59.6 µM (inactive)

## CCc1nnc(NC(=O)c2ccc(Cl)nc2)s1
[15]
  IC50: > 80 µM (inactive)

## CC(C)c1ccc(NC(=O)[C@H](Cc2c[nH]c3ccccc23)NC(=O)[C@@H]2Cc3ccccc3CN2)cc1
[16]
  EC50: > 120 µM (not active)
BJ [17]
  EC50: > 150 µM (not active)
[18]
  EC50: 20.1 µM (active)
BJ [19]
  EC50: 70.9 µM (active)
BJ [20]
  EC50: > 150 µM (not active)
[21]
  EC50: 119 µM (active)
Vero [22]
  IC50: 5.06 µM (active)
Vero [23]
  CC50: 23.5 µM (active)

## O=C(c1ccc(Cl)cc1)C(CN1CCCC1)c1ccccc1 (stereo not given)
[24]
  EC50: > 120 µM (not active)
[25]
  EC50: > 120 µM (not active)
H4
  EC50: > 120 µM (not active)
Vero [22]
  IC50: > 25 µM (active)
Vero [23]
  CC50: 23 µM (active)
